Laboratory results taken from publication PMC9505425, “Targeting of the Mitochondrial TET1 Protein by Pyrrolo[3,2-b]pyrrole Chelators” (International Journal of Molecular Sciences, 2022).
pIC50: −log10 of the molar value. Where “and” joins values, the source holds several entries; their conditions need not be identical. Identical values can stand only once. Values belong to the compound of their own block, whether it stands above or below them.

Columns and labels:
Caov-3 cells = assay: MTT cytotoxicity assay, Caov-3; format: cell-based, human; settings: for Cell viability % / pIC50: 48 h; for pIC50: Caov-3, MTT
Experimental: (§1) The effects of the tested compounds 1–6 on HF-P4, U-118 MG, H1299, BT-20, and Caov-3 cell lines were evaluated by the MTT assay during 48 h treatment (Table 2 and Tables S2–S31). In all tested compounds, we recognized a difference in cytotoxicity between healthy cells (HF-P4) and cancer cell lines (BT-20, Caov-3, and H-1299). […] In the case of ovarian cancer, the authors discovered oncogenic and poor prognosis roles of TET1 in epithelial ovarian carcinoma (EOC). TET1 is believed to demethylate the epigenome and activate numerous oncogenic pathways in EOC. The aforementioned study presents a new mechanism where TET1 contributes to tumor development through collaboration with CK2α [21]. The overexpression of the TET1 protein was also found in triple negative breast cancer and was associated with an activation of PI3K/mTOR pathway and decreased overall survival.
The human ovary adenocarcinoma cell line (Caov-3), purchased from ATCC (Caov-3 (ATCC® HTB-75™), Manassas, VA, USA), was used for the cytotoxicity assay (MTT). Caov-3 cells were cultivated under standard conditions in Dulbecco’s modified Eagle’s medium (ATCC, Manassas, VA, USA) supplemented with 10% FBS and streptomycin (100 μg/mL) at 37 °C at a 5% CO2 atmosphere.
(§2) For the cytotoxicity assay, we used the following cell lines: human glioblastoma cell line U118-MG, human mammary gland/breast cell line BT-20, human ovary adenocarcinoma cell line Caov-3, and non-small-cell lung carcinoma H-1299. As previously mentioned, these cell lines contain a high level of the TET1 protein, which corresponds to a lower overall survival. In addition to these cell cultures, we used the human dermal fibroblast cell line HF-P4 as a healthy control. Determination of cytotoxicity was performed using the MTT [3-(4,5-dimethylthiazol-2-yl)-2,5-diphenyltetrazolium bromide] colorimetric assay. Viable cells from each cell line were cultured in 96-well plates (VWR, Stříbrná Skalice, Czech Republic) at a density of 1.0 × 10^5 cells per well and allowed to grow for 24 h in 200 μL of recommended medium. After a 1-day incubation, the medium was replaced with solutions of compounds 1–6 at concentration ranges of 0.1–20 μM. Each concentration was measured four times within one test, and the entire test was repeated three times. Tested compounds 1–6 were dissolved in DMSO and then diluted with corresponding medium to a final volume of 200 μL (maximum 1% DMSO). After 48 h exposure, cells were treated with 175 μL of MTT solution (P-LAB, Prague, Czech Republic) for 2 h. In the next step, MTT solution was removed, and 125 μL of DMSO (Penta, Prague, Czech Republic) was added to solubilize dark crystals of formazan formed in intact cells, and absorbance was measured at 570 nm by the enzyme-linked immunoabsorbent assay reader Infinite® 200 PRO (Tecan, Männedorf, Switzerland). The final DMSO concentration was smaller than 1% (v/v). The absorbance of untreated cells was considered 100%, and IC50 values were calculated by the GraphPad Prism 8 software. As a parameter for cytotoxicity, we used a concentration that inhibits 50% of cell growth (IC50).

BT-20 cells = assay: MTT cytotoxicity assay, BT-20; format: cell-based, human; settings: for Cell viability % / pIC50: 48 h; for pIC50: BT-20, MTT
Experimental: as §1
The human mammary gland/breast cell line (BT-20), purchased from ATCC (BT-20 (ATCC® HTB-19™), Manassas, VA, USA), was used for the cytotoxicity assay (MTT), and BT-20 cells were cultivated under standard conditions in Eagle’s minimum essential medium (ATCC, Manassas, VA, USA) supplemented with 10% FBS and streptomycin (100 μg/mL) at 37 °C at a 5% CO2 atmosphere.
as §2

[1] = Caov-3, 100 nM, repeats, 0.1 µM
[2] = Caov-3, 500 nM, repeats, 0.5 µM
[3] = Caov-3, 750 nM, repeats, 0.75 µM
[4] = Caov-3, 2.5 uM, repeats, 2.5 µM
[5] = Caov-3, 7.5 uM, repeats, 7.5 µM
[6] = Homo sapiens, Caov-3, 48 h, Caov-3, 5 uM, repeats, read-out: Cell viability %
[7] = Homo sapiens, Caov-3, 48 h, Caov-3, 10 uM, repeats, read-out: Cell viability %
[8] = Homo sapiens, Caov-3, 48 h, Caov-3, 15 uM, repeats, read-out: Cell viability %
[9] = Homo sapiens, Caov-3, 48 h, Caov-3, 20 uM, repeats, read-out: Cell viability %
[10] = BT-20, 750 nM, repeats, 0.75 µM
[11] = Homo sapiens, BT-20, 48 h, BT-20, 100 nM, repeats, read-out: Cell viability %
[12] = Homo sapiens, BT-20, 48 h, BT-20, 500 nM, repeats, read-out: Cell viability %
[13] = Homo sapiens, BT-20, 48 h, BT-20, 1 uM, repeats, read-out: Cell viability %
[14] = Homo sapiens, BT-20, 48 h, BT-20, 7.5 uM, repeats, read-out: Cell viability %
[15] = Homo sapiens, BT-20, 48 h, BT-20, 10 uM, repeats, read-out: Cell viability %
[16] = Homo sapiens, BT-20, 48 h, BT-20, 15 uM, repeats, read-out: Cell viability %
[17] = Homo sapiens, BT-20, 48 h, BT-20, 20 uM, repeats, read-out: Cell viability %

melting point: 321 to 322 °C
Structure (SMILES): COc1cccc(/C=N/NC(=O)c2ccc(-c3cc4c(cc(-c5ccc(C(=O)N/N=C/c6cccc(OC)c6O)cc5)n4-c4ccc(C)cc4)n3-c3ccc(C)cc3)cc2)c1O [Compound 5]
Cell viability % (Caov-3 cells; [1]): 124.7159% and 131.0561% and 82.4% | Cell viability % (Caov-3 cells; [2]): 90.56% and 116.6807% and 137.4211% | Cell viability % (Caov-3 cells; [3]): 97.72% and 117.0859% and 120.9681% | Cell viability % (Caov-3 cells; Caov-3, 1 uM, repeats, 1 µM): 115.5595% and 95.48% and 128.3145% | Cell viability % (Caov-3 cells; [4]): 106.339% and 69.34% and 79.185% | Cell viability % (Caov-3 cells; Caov-3, 5 uM, repeats, 5 µM): 81.63% and 70.92% | Cell viability % (Caov-3 cells; [5]): 49.35% and 63.65% | Cell viability % (Caov-3 cells; Caov-3, 10 uM, repeats, 10 µM): 41.31% and 47.33% | Cell viability % (Caov-3 cells; Caov-3, 15 uM, repeats, 15 µM): 34.22% and 36.44% | Cell viability % (Caov-3 cells; Caov-3, 20 uM, repeats, 20 µM): 16.1941% and 14.83% | viability at 5 µM (Caov-3 cells; [6]): 83.6% | viability at 7.5 µM (Caov-3 cells; Homo sapiens, Caov-3, 48 h, Caov-3, 7.5 uM, repeats, read-out: Cell viability %): 62.5% | viability at 10 µM (Caov-3 cells; [7]): 29.5% | viability at 15 µM (Caov-3 cells; [8]): 31.5% | viability at 20 µM (Caov-3 cells; [9]): 17.9% | pIC50 (Caov-3 cells; Homo sapiens): 5.02 | Cell viability % (BT-20 cells; BT-20, 100 nM, repeats, 0.1 µM): 94.73% and 89.5899% | Cell viability % (BT-20 cells; BT-20, 500 nM, repeats, 0.5 µM): 90.47% and 107.0261% | Cell viability % (BT-20 cells; [10]): 86.64% and 81% and 102.8391% | Cell viability % (BT-20 cells; BT-20, 1 uM, repeats, 1 µM): 92.1% and 100.302% | Cell viability % (BT-20 cells; BT-20, 2.5 uM, repeats, 2.5 µM): 80.3% and 100.57% and 104.0262% | Cell viability % (BT-20 cells; BT-20, 5 uM, repeats, 5 µM): 60.99% and 87.49% and 89.1% | Cell viability % (BT-20 cells; BT-20, 7.5 uM, repeats, 7.5 µM): 52.633% and 55.7373% | Cell viability % (BT-20 cells; BT-20, 10 uM, repeats, 10 µM): 52.47% and 37.54% | Cell viability % (BT-20 cells; BT-20, 15 uM, repeats, 15 µM): 28.45% and 34.27% | Cell viability % (BT-20 cells; BT-20, 20 uM, repeats, 20 µM): 18.3694% and 26.24% | viability at 0.1 µM (BT-20 cells; [11]): 86% | viability at 0.5 µM (BT-20 cells; [12]): 97.4% | viability at 1 µM (BT-20 cells; [13]): 99% | viability at 7.5 µM (BT-20 cells; [14]): 45.7% | viability at 10 µM (BT-20 cells; [15]): 41.3% | viability at 15 µM (BT-20 cells; [16]): 28.5% | viability at 20 µM (BT-20 cells; [17]): 20.9% | pIC50 (BT-20 cells; Homo sapiens): 4.95

melting point: 337 to 338 °C
Structure (SMILES): Cc1ccc(-n2c(-c3ccc(C(=O)N/N=C/c4cc(F)ccc4O)cc3)cc3c2cc(-c2ccc(C(=O)N/N=C/c4cc(F)ccc4O)cc2)n3-c2ccc(C)cc2)cc1 [Compound 3]
Cell viability % (Caov-3 cells; [1]): 80.39% and 71.14% | Cell viability % (Caov-3 cells; [2]): 93.5% and 75.39% and 98.76% | Cell viability % (Caov-3 cells; [3]): 86.6015% and 81.49% and 112.9009% | Cell viability % (Caov-3 cells; Caov-3, 1 uM, repeats, 1 µM): 86.92% and 97.81% | Cell viability % (Caov-3 cells; [4]): 89.39% and 98.69% | Cell viability % (Caov-3 cells; Caov-3, 5 uM, repeats, 5 µM): 67.61% and 86.52% | Cell viability % (Caov-3 cells; [5]): 83.04% and 61.94% and 104.0087% | Cell viability % (Caov-3 cells; Caov-3, 10 uM, repeats, 10 µM): 67.37% and 81.12% | Cell viability % (Caov-3 cells; Caov-3, 15 uM, repeats, 15 µM): 57.51% and 62.97% | Cell viability % (Caov-3 cells; Caov-3, 20 uM, repeats, 20 µM): 34.98% and 37.9% | viability at 0.1 µM (Caov-3 cells; Homo sapiens, Caov-3, 48 h, Caov-3, 100 nM, repeats, read-out: Cell viability %): 84.4% | viability at 1 µM (Caov-3 cells; Homo sapiens, Caov-3, 48 h, Caov-3, 1 uM, repeats, read-out: Cell viability %): 89.4% | viability at 2.5 µM (Caov-3 cells; Homo sapiens, Caov-3, 48 h, Caov-3, 2.5 uM, repeats, read-out: Cell viability %): 85.3% | viability at 5 µM (Caov-3 cells; [6]): 70.6% | viability at 10 µM (Caov-3 cells; [7]): 65.4% | viability at 15 µM (Caov-3 cells; [8]): 59% | viability at 20 µM (Caov-3 cells; [9]): 35.5% | pIC50 (Caov-3 cells; Homo sapiens): 4.75 | Cell viability % (BT-20 cells; BT-20, 100 nM, repeats, 0.1 µM): 73.86% and 70.55% | Cell viability % (BT-20 cells; BT-20, 500 nM, repeats, 0.5 µM): 90.62% and 106.8284% | Cell viability % (BT-20 cells; [10]): 90.49% and 101.3318% | Cell viability % (BT-20 cells; BT-20, 1 uM, repeats, 1 µM): 95.2857% and 94.7% | Cell viability % (BT-20 cells; BT-20, 2.5 uM, repeats, 2.5 µM): 99.34% and 98.89% | Cell viability % (BT-20 cells; BT-20, 5 uM, repeats, 5 µM): 91.79% and 101.4304% | Cell viability % (BT-20 cells; BT-20, 7.5 uM, repeats, 7.5 µM): 71.93% and 72.16% | Cell viability % (BT-20 cells; BT-20, 10 uM, repeats, 10 µM): 60.86% and 57.19% | Cell viability % (BT-20 cells; BT-20, 15 uM, repeats, 15 µM): 53.94% and 48.1349% | Cell viability % (BT-20 cells; BT-20, 20 uM, repeats, 20 µM): 33.39% and 29.51% | viability at 0.1 µM (BT-20 cells; [11]): 83.4% | viability at 0.5 µM (BT-20 cells; [12]): 95.3% | viability at 0.75 µM (BT-20 cells; Homo sapiens, BT-20, 48 h, BT-20, 750 nM, repeats, read-out: Cell viability %): 99.7% | viability at 1 µM (BT-20 cells; [13]): 104% | viability at 2.5 µM (BT-20 cells; Homo sapiens, BT-20, 48 h, BT-20, 2.5 uM, repeats, read-out: Cell viability %): 99.4% | viability at 5 µM (BT-20 cells; Homo sapiens, BT-20, 48 h, BT-20, 5 uM, repeats, read-out: Cell viability %): 85.1% | viability at 7.5 µM (BT-20 cells; [14]): 73.1% | viability at 10 µM (BT-20 cells; [15]): 62.9% | viability at 15 µM (BT-20 cells; [16]): 48.9% | viability at 20 µM (BT-20 cells; [17]): 41% | pIC50 (BT-20 cells; Homo sapiens): 4.86
